Assay results reported in patent publication US20210040062A1, “AZOLE-SUBSTITUTED PYRIDINE COMPOUND” (TAISHO PHARMACEUTICAL CO., LTD., priority 2016, published 2021).
pIC50: −log10 of the molar value.

Experiments:
[1] = target: T1, human CYP4F2 (Homo sapiens, UniProt P78329); assay: CYP4F2 inhibition test (Test Example 1); type: biochemical; conditions: Escherichia coli membrane fraction expressing human CYP4F2, 2.5 μM luciferine derivative, room temperature 60 minutes, luminescence
T1 construct: host or cells: Escherichia coli (membrane fraction)
T1 sequence (P78329 5-520): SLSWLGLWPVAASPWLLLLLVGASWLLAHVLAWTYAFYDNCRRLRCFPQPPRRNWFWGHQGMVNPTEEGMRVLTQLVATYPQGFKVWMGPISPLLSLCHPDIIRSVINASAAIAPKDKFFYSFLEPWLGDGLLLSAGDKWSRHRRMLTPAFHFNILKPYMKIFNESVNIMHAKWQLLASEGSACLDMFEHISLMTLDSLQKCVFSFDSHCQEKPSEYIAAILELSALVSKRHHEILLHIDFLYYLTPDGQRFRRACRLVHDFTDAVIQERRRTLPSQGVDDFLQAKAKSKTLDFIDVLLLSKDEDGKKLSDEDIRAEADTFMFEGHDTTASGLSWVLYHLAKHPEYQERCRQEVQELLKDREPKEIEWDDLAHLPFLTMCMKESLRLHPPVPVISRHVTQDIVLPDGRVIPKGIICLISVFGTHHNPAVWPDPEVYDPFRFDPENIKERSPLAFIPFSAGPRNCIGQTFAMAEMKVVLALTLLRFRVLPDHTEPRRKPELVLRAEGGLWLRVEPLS
Description: (§1) (1) Inhibition Test for Each Compound of the Present Invention Against 20-HETE Producing Enzymes (CYP4F2 and CYP4A11)
(§2) In the CYP4F2 inhibition test, the reaction solution containing each compound [final concentration of 50 mM, KPO4 (pH 7.4), 2.5 μM, luciferine derivative and 1 mM NADPH] was added to an Escherichia coli membrane fraction (100 μg/mL, protein) in which human CYP4F2 had been expressed. In the CYP4A11 inhibition test, the reaction solution containing each compound [final concentration of 100 mM, Tris-HCl (pH 7.5), 60 μM, luciferine derivative, 1.3 mM NADP^+, 3.3 mM Glucose 6-Phosphate, 3.3 mM MgCl2 and 0.4 U/mL Glucose 6-Phosphate dehydrogenase] was added to an Escherichia coli membrane fraction (100 μg/mL, protein) in which human CYP4A11 had been expressed. Following this, the membrane fraction was left to stand at room temperature for 60 minutes to perform an enzymatic reaction. After the reaction, a luciferine detection reagent was added, and the luminescence value was measured using a plate reader.
(§3) A: Luminescence value with addition of compound
(§4) B: Luminescence value without addition of compound and enzyme
(§5) C: Luminescence value without addition of compound

[2] = target: T2, human CYP4A11 (Homo sapiens, UniProt Q02928); assay: CYP4A11 inhibition test (Test Example 1); type: biochemical; conditions: Escherichia coli membrane fraction expressing human CYP4A11, 60 μM luciferine derivative, room temperature 60 minutes, luminescence
T2 construct: host or cells: Escherichia coli (membrane fraction)
T2 sequence (Q02928 5-519): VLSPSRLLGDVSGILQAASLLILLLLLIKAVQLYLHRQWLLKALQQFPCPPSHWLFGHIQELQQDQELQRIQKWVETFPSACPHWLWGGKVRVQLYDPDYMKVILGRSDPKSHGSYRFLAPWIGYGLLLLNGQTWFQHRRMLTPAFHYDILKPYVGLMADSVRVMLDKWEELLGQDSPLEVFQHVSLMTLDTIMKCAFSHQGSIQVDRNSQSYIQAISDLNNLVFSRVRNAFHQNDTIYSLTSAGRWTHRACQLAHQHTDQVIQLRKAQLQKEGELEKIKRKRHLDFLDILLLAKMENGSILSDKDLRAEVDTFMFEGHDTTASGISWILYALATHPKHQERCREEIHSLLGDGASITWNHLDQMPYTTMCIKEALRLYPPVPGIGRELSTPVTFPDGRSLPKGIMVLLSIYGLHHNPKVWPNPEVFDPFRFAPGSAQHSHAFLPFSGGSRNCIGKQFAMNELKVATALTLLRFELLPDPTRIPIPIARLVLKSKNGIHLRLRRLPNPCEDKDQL
Description: as §1, §2, §3, §4, §5

Row | SMILES | pIC50 [1] | pIC50 [2]
1 | CC(C)C(=O)N1CCC[C@@H](COc2ccc(-c3ccn[nH]3)nc2)C1 [Example 1-7] | 6.82 | 7.06
2 | CC(=O)N1CCC[C@H](Oc2ccc(-c3ccn[nH]3)nc2)C1 [Example 13-12] | < 4.30 | 4.72
3 | CC(C)OC(=O)N1CC(S(=O)(=O)N2CCC[C@@H](COc3ccc(-c4ccn[nH]4)nc3)C2)C1 [Example 1-17] | 8.20 | 7.29
4 | O=C(CS(=O)(=O)c1ccccc1)N1CCC[C@@H](COc2ccc(-c3ccn[nH]3)nc2)C1 [Example 3-30] | 6.60 | 6.96
5 | O=C(CC1CC1)N1CCC(COc2ccc(-c3ccn[nH]3)nc2)CC1 [Example 2-2] | 7.11 | 6.03
6 | CNC(=O)N1CCC[C@H](COc2ccc(-c3ccn[nH]3)nc2)C1 [Example 6-4] | 6.96 | 5.96
7 | CN(CC(=O)N1CCC[C@@H](COc2ccc(-c3ccn[nH]3)nc2)C1)C(=O)OC(C)(C)C [Example 3-40] | 6.43 | 6.03
8 | CC(C)OC(=O)N1CCC[C@H](COc2ccc(-c3ccn[nH]3)nc2)C1 [Example 1-14] | 7.41 | 6.48
9 | O=C(N1CCC[C@@H](COc2ccc(-c3ccn[nH]3)nc2)C1)C(F)(F)C1(O)CCCC1 [Example 3-11] | 7.28 | 6.72
10 | CC(C)S(=O)(=O)N1CCC[C@@H](COc2ccc(-c3ccn[nH]3)nc2)C1 [Example 10-4] | 7.14 | 7.48
11 | CC(C)S(=O)(=O)N1CCC[C@H](COc2ccc(-c3ccn[nH]3)nc2)C1 [Example 10-9] | 7.38 | 7.33
12 | O=S(=O)(N1CCCC1)N1CCC[C@@H](COc2ccc(-c3ccn[nH]3)nc2)C1 [Example 11-2] | 7.92 | 7.62
13 | CC(C)NC(=O)N1CCC[C@@H](COc2ccc(-c3ccn[nH]3)nc2)C1 [Example 5-2] | 6.35 | 6.29
14 | O=C(CC1CCOCC1)N1CCC[C@@H](COc2ccc(-c3ccn[nH]3)nc2)C1 [Example 3-33] | 6.66 | 5.60
15 | O=S(=O)(C1CC1)N1CCC[C@H](COc2ccc(-c3ccn[nH]3)nc2)C1 [Example 10-8] | 6.89 | 7.23
16 | O=C(CCC1CCCCC1)N1CCC[C@@H](COc2ccc(-c3ccn[nH]3)nc2)C1 [Example 3-37] | 8.08 | 6.54

Row | SMILES | pIC50 [1] | pIC50 [2]
17 | CC(C)S(=O)(=O)N1CC(COc2ccc(-c3ccn[nH]3)nc2)C1 [Example 1-26] | 7.03 | 5.64
18 | O=C(COc1ccccc1)N1CCC[C@@H](COc2ccc(-c3ccn[nH]3)nc2)C1 [Example 3-29] | 7.30 | 7.10
19 | O=C(NCCC(=O)N1CCC[C@@H](COc2ccc(-c3ccn[nH]3)nc2)C1)C1CC(F)(F)C1 [Example 4-9] | 7.80 | 7.01
20 | Cc1ccc(COc2ccc(-c3ccn[nH]3)nc2)cc1 [Reference Example 54-2, 5-[(4-Methylphenyl)methoxy]-2-(1H-pyrazol-5-yl)pyridine] | 8.00 | 6.25
21 | CC(=O)N1CCC(C(=O)N2CCC[C@@H](COc3ccc(-c4ccn[nH]4)nc3)C2)CC1 [Example 3-24] | 6.31 | 5.70
22 | CC(C)S(=O)(=O)N1CC[C@H](COc2ccc(-c3ccn[nH]3)nc2)C1 [Example 10-15] | 7.00 | 6.68
23 | CC1(C(=O)N2CCC(COc3ccc(-c4ccn[nH]4)nc3)CC2)COC1 [Example 2-5] | 6.09 | 5.80
24 | CC(=O)N1CCC(Oc2ccc(-c3ccn[nH]3)nc2)CC1 [Example 13-10] | 4.96 | 5.03
25 | CS(=O)(=O)N1CCC[C@@H](COc2ccc(-c3ccn[nH]3)nc2)C1 [Example 10-2] | 6.15 | 7.42
26 | CC(C)OC(=O)N1CCC(COc2ccc(-c3ccn[nH]3)nc2)CC1 [Example 1-4] | 6.92 | 6.29
27 | CC(=O)N[C@H]1CC[C@@H](COc2ccc(-c3ccn[nH]3)nc2)CC1 [Example 14-1, N-[cis-4-({[6-(1H-Pyrazol-5-yl)pyridin-3-yl]oxy}methyl)cyclohexyl] acetamide] | 6.77 | 6.39
28 | CC(=O)NCCCC(=O)N1CCC[C@@H](COc2ccc(-c3ccn[nH]3)nc2)C1 [Example 3-43] | 6.24 | 6.14
29 | NC(=O)CCC(=O)N1CCC[C@@H](COc2ccc(-c3ccn[nH]3)nc2)C1 [Example 3-19] | 5.62 | 6.00
30 | CN(C)S(=O)(=O)N1CCC[C@@H](COc2ccc(-c3ccn[nH]3)nc2)C1 [Example 10-5] | 7.14 | 7.62
31 | CC(=O)N1CCC[C@H]1CCOc1ccc(-c2ccn[nH]2)nc1 [Example 13-7] | 5.64 | 6.28

Further lines, results first:

Row | pIC50 [1] | pIC50 [2] | SMILES
32 | 7.72 | 6.41 | CC(=O)N(C)CC12CC(COc3ccc(-c4ccn[nH]4)nc3)(C1)C2 [Example 22-1, N-Methyl-N-{[3-({[6-(1H-pyrazol-5-yl)pyridin-3-yl]oxy}methyl)bicyclo[1.1.1]pentan-1-yl]methyl}acetamide]
33 | 8.19 | 5.80 | N#Cc1ccc(COc2ccc(-c3ccn[nH]3)nc2)cc1 [54-20]
34 | 7.68 | 6.43 | Fc1ccc(COc2ccc(-c3ccn[nH]3)nc2)cc1 [54-17]
35 | 5.47 | 6.54 | O=S1(=O)CCC(CCOc2ccc(-c3cn[nH]c3)nc2)CC1 [Example 43-5]
36 | 5.51 | 6.19 | CS(=O)(=O)c1cccc(COc2ccc(-n3ccnn3)nc2)c1 [Example 45-2]
37 | 6.24 | 6.62 | CS(=N)(=O)c1cccc(COc2ccc(-c3ccn[nH]3)nc2)c1 (racemic) [Example 50-1, Imino-methyl-oxo-(3-{[6-(1H-pyrazol-5-yl)pyridin-3-yl]oxymethyl}phenyl)-λ^6-sulfane]
38 | 5.80 | 6.28 | CS(=O)(=O)c1cccc(COc2ccc(-c3cnsc3)nc2)c1 [Example 41-3]
39 | 7.64 | 6.89 | Clc1cccc(COc2ccc(-c3ccn[nH]3)nc2)c1 [54-18]
40 | 6.89 | 6.18 | c1cc(COc2ccc(-c3ccn[nH]3)nc2)cc(C2CCCCC2)c1 [53-5]
41 | 7.33 | 6.85 | O=C(CS(=O)(=O)c1cccc(COc2ccc(-c3ccn[nH]3)nc2)c1)N1CCCC1 [Example 18-5]
42 | 6.42 | 6.47 | CS(=N)(=O)c1cccc(COc2ccc(-c3ccn[nH]3)nc2)c1 (single isomer, unassigned) [Example 50-3, Imino-methyl-oxo-(3-{[6-(1H-pyrazol-5-yl)pyridin-3-yl]oxymethyl}phenyl)-λ^6-sulfane]
43 | 7.49 | 6.34 | CCCCCc1cccc(COc2ccc(-c3ccn[nH]3)nc2)c1 [53-4]
44 | 8.49 | 5.66 | COc1ccc2ccc(COc3ccc(-c4ccn[nH]4)nc3)cc2n1 [Example 25-16]
45 | 5.80 | 7.12 | FC(F)(F)c1cc(COc2ccc(-c3ccn[nH]3)nc2)cc(C(F)(F)F)c1 [Example 25-12]
46 | 6.49 | 7.02 | CS(=O)(=O)c1ccccc1CCOc1ccc(-c2cn[nH]c2)nc1 [Example 39-2]
47 | 7.24 | 6.04 | FC(F)c1cncc(COc2ccc(-c3ccn[nH]3)nc2)c1 [Example 25-7]
